Counter-ions that a name gives are not always drawn.

As a reminder, the melting point is the temperature, or range, at which the solid turns liquid.

As for `O=C(N[C@H](CN1CCCC1)c1ccccc1)C1(c2ccc3c(c2)C=CS(=O)(=O)N3)CC1`, the melting point lay within 163 to 165 °C.
For `O=C1Cc2ccc(C3(C(=O)N[C@H](CN4CCCC4)c4ccccc4)CC3)cc2N1`, the melting point was 115 to 118 °C.
Compound `O=C(O)COc1ccc(C2(C(=O)N[C@H](CN3CCCC3)c3ccccc3)CC2)cc1` (stereo in doubt) yielded a melting point of 94 to 95 °C.
With `CS(=O)(=O)Nc1ccc(C2(C(=O)N[C@H](CN3CCCC3)c3ccccc3)CC2)cc1` the figure was 165 to 168 °C; with `CS(=O)(=O)c1ccc(C2(C(=O)N[C@H](CN3CCCC3)c3ccccc3)CC2)cc1`, 150 to 152 °C; with `O=C(N[C@H](CN1CCCC1)c1ccccc1)C1(c2ccc3ccc(=O)[nH]c3c2)CC1` (stereo in doubt), 101 to 103 °C.
With `CS(=O)(=O)Nc1cc(C2(C(=O)N[C@H](CN3CCCC3)c3ccccc3)CC2)ccc1F` (stereo in doubt) the figure was 67 to 69 °C.
Next, `NC(=O)c1cccc(C2(C(=O)N[C@H](CN3CCCC3)c3ccccc3)CC2)c1` (stereo in doubt): 120 to 121 °C.
`O=C(N[C@H](CN1CCCC1)c1cccc(OCc2ccccc2)c1)C1(c2ccc3oc(=O)[nH]c3c2)CC1` came in with a melting point of 94 to 96 °C.
Turning to `CS(=O)(=O)Nc1cccc(C2(C(=O)N[C@H](CN3CCCC3)C3CCCCC3)CC2)c1`, the melting point lay within 201 to 202 °C.
With `COc1cccc([C@@H](CN2CC[C@H](O)C2)NC(=O)C2(c3ccc4oc(=O)[nH]c4c3)CC2)c1` the figure was 125 to 127 °C; with `CN(C(=O)C1(c2ccccc2)CCC1)[C@H](CN1CCCC1)c1ccccc1.Cl`, 234 to 235 °C.
Next, `CS(=O)(=O)Oc1ccc(C2(C(=O)N[C@H](CN3CC[C@H](O)C3)c3ccccc3)CC2)cc1.Cl`: 60 to 62 °C.
As to `O=CNc1cc(C2(C(=O)N[C@H](CN3CCCC3)c3ccccc3)CC2)ccc1O` (stereo in doubt), the melting point lay in the range of 175 to 177 °C.
With `CS(=O)(=O)Nc1cccc(C2(C(=O)N[C@@H](CN3CCCC3)c3cccc(O)c3)CC2)c1` the figure was 103 to 105 °C; with `O=C(N[C@H](CN1CCCC1)c1ccccc1)C1(c2ccc3oncc3c2)CC1`, 129 to 130 °C; with `CS(=O)(=O)Nc1cccc(C2(C(=O)N[C@H](CN3CC[C@H](N)C3)c3ccccc3)CC2)c1` (as salt: trifluoroacetate), 119.6 to 119.8 °C.
With `CS(=O)(=O)Nc1cccc([C@@H](CN2CCCC2)NC(=O)C2(c3ccc4oc(=O)[nH]c4c3)CC2)c1` (stereo in doubt) the figure was 114 to 116 °C.
Regarding `CC(=O)c1cc(C2(C(=O)N[C@H](CN3CCCC3)c3ccccc3)CC2)ccc1O` (stereo in doubt), the melting point is 101.8 to 102.2 °C.
Next, `O=C(N[C@H](CN1CCCC1)c1cccc(-c2nn[nH]n2)c1)C1(c2ccc3oc(=O)[nH]c3c2)CC1`: 107 to 109 °C; `CS(=O)(=O)Nc1ccc(C2(C(=O)N[C@H](CN3CCCC3)c3ccccc3)CC2)cn1`: 182.2 to 182.4 °C; `O=C(N[C@H](CN1CCCC1)c1ccccc1)C1(c2cccc(-c3nnn[nH]3)c2)CC1` (stereo in doubt): 137 to 139 °C.
Next, `O=C(N[C@H](CN1CCCC1)c1ccccc1)C1(c2ccc3c(c2)NS(=O)(=O)C=C3)CC1`: 148 to 150 °C; `N#Cc1cccc(COc2cccc([C@@H](CN3CCCC3)NC(=O)C3(c4ccc5oc(=O)[nH]c5c4)CC3)c2)c1` (stereo in doubt): 129 to 130 °C.
With `O=C(O)COc1cccc(C2(C(=O)N[C@H](CN3CCCC3)c3ccccc3)CC2)c1` (stereo in doubt) the figure was 124 to 125 °C.
Take `Cc1noc2ccc(C3(C(=O)N[C@H](CN4CCCC4)c4ccccc4)CC3)cc12` (stereo in doubt): the melting point fell in the range of 158.5 to 158.8 °C.
Next, `O=C(N[C@H](CN1CCCC1)c1ccccc1)C1(c2ccc3c(c2)NS(=O)(=O)C3)CC1`: 138 to 140 °C; `O=C(O)c1ccc(C2(C(=O)N[C@H](CN3CCCC3)c3ccccc3)CC2)cc1`: 134 to 136 °C.
For `Cl.O=C(N[C@H](CN1CCCC1)c1ccccc1)C1(c2ccccn2)CC1`, the melting point was 107.1 to 107.3 °C.
Next, `Cn1c(=O)oc2ccc(C3(C(=O)N[C@H](CN4CCCC4)c4ccccc4)CC3)cc21` (stereo in doubt): 96 to 98 °C.
Next, `N#Cc1ccc(COc2cccc([C@@H](CN3CCCC3)NC(=O)C3(c4ccc5oc(=O)[nH]c5c4)CC3)c2)cc1` (stereo in doubt): 88 to 89 °C; `Cl.O=C(N[C@H](CN1CCCC1)c1ccccc1)C1(c2cccc(OCc3ccccc3)c2)CC1`: 118 to 120 °C.
With `CN[C@H]1CCN(C[C@@H](NC(=O)C2(c3cccc(NS(C)(=O)=O)c3)CC2)c2ccccc2)C1` the figure was 80.6 to 80.8 °C; with `COC(=O)c1cccc(Cn2c(=O)oc3ccc(C4(C(=O)N[C@H](CN5CCCC5)c5cccc(O)c5)CC4)cc32)c1`, 112 to 113 °C.
As for `NC(=O)c1ccc(C2(C(=O)N[C@H](CN3CCCC3)c3ccccc3)CC2)cc1` (stereo in doubt), the melting point was 201 °C.
The compound `O=C(N[C@H](CN1CCCC1)c1ccccc1)C1(c2ccc3[nH]c(=O)[nH]c3c2)CC1` (stereo in doubt) gave a melting point of 207 to 209 °C.
With `Nc1cccc([C@@H](CN2CCCC2)NC(=O)C2(c3ccc4oc(=O)[nH]c4c3)CC2)c1` (stereo in doubt) the figure was 95 to 97 °C; with `Cc1cc(C2(C(=O)N[C@H](CN3CCCC3)c3ccccc3)CC2)ccc1NS(C)(=O)=O` (stereo in doubt), 92 to 94 °C.
For the compound `CS(=O)(=O)Nc1cc(C2(C(=O)N[C@H](CN3CCCC3)c3ccccc3)CC2)ccc1Cl`, the melting point lay in the range of 280 to 281 °C.
Next, `O=C(N[C@H](CN1CCCC1)c1cccc(O)c1)C1(c2ccc3oc(=O)[nH]c3c2)CC1`: 132 to 134 °C; `O=C(N[C@H](CN1CCCC1)c1ccccc1)C1(c2ccc3c(c2)NS(=O)(=O)O3)CC1`: 239 to 241 °C; `Cl.O=C(N[C@H](CN1CCCC1)c1ccccc1)C1(c2cnc3ccccc3c2)CC1`: 176 to 178 °C.
Next, `CN(C(=O)C1(c2ccccc2)CCCC1)[C@H](CN1CCCC1)c1ccccc1.Cl`: 220 to 221 °C; `CS(=O)(=O)c1cccc(C2(C(=O)N[C@H](CN3CCCC3)c3ccccc3)CC2)c1.Cl`: 68 to 70 °C; `Cn1nnc2cc(C3(C(=O)N[C@H](CN4CCCC4)c4ccccc4)CC3)ccc21` (stereo in doubt): 78 to 80 °C.
With `C/C(=N/O)c1cc(C2(C(=O)N[C@H](CN3CCCC3)c3ccccc3)CC2)ccc1O` (stereo in doubt) the figure was 158.5 to 158.8 °C; with `O=C(N[C@H](CN1CC[C@H](O)C1)c1cccc([N+](=O)[O-])c1)C1(c2ccc3oc(=O)[nH]c3c2)CC1`, 224 to 226 °C.
As to `CS(=O)(=O)Nc1cccc(C2(C(=O)N[C@H](CN3CCCC3)c3cccc(OCC(=O)O)c3)CC2)c1`, the melting point fell in the range of 160 to 162 °C.
